{
  "source": "patent US12036225B2",
  "about": "“Use of ibezapolstat to promote microbiome health” (Acurx Pharmaceuticals, Inc., priority 2021, dated 2024)",
  "key": {"C. difficile infection [1]": {"system": "C. difficile infection", "test": "Phase 2a open-label trial in CDI patients: clinical cure and sustained clinical cure", "type": "in vivo, human", "conditions": "10 CDI patients", "description": "Phase 2a of this trial was an open-label cohort of 10 subjects from study centers in the United States. In this cohort, 10 patients with diarrhea caused by mild/moderate C. difficile diagnosed via toxin EIA+ were treated with ibezapolstat 450 mg orally, twice daily for 10 days. All patients were followed for recurrence for 28±2 days. Stool was collected during course of therapy and at follow up. Patient fecal samples were evaluated for C. difficile culture and microbiome changes.\nThe primary efficacy outcome measure was clinical cure at EOT defined as resolution of diarrhea in the 24-hour period preceding EOT and maintained for at least 48 hours post EOT. SCC was defined as clinical cure with no recurrence of CDI within 28 (±2) days after EOT.\nAn intent-to-treat analysis of patients receiving at least one dose of ibezapolstat was conducted. Descriptive statistics were calculated for efficacy, safety/tolerability, and PK data generated using SAS version 9.4 software (SAS Institute, Inc Cary, NC, USA). Microbiome summary plots and data visualization was prepared using R software version 4.1.1 (R Core Team 2021, Vienna, Austria). (R Core Team (2013). R: A language and environment for statistical computing. R Foundation for Statistical Computing, Vienna, Austria.) Alpha diversity for each sample was assessed with the VeganR package version 2.4-2 using the Shannon Diversity Index and Inverse Simpson Index. Differences in alpha diversity (Shannon Diversity and Inverse Simpson Indexes) and bile acids at baseline compared to during or after therapy were compared using linear regression models. Proportional changes of bacterial taxa over the 10-day dosing interval were calculated using linear regression models for taxa with at least a one percent proportional change during the study time period. A p value <0.05 was considered significant."}, "[2]": {"test": "Phase 2a trial: safety assessments (adverse events)", "type": "in vivo, human", "description": "Safety evaluations included AE assessment, physical examination, vital signs, clinical laboratory tests (chemistry, hematology, and urinalysis), and electrocardiography. Safety endpoints for all subjects were recorded including nature, frequency, and severity of AEs. AEs were assessed at each visit beginning from the time of enrollment and classified according to the Medical Dictionary for Regulatory Activities (MedDRA version 15.0). AE severity (mild, moderate, or severe) and causality (unrelated, possibly related, or probably related to the study medication) were assessed by the investigator at each site."}, "[3]": {"test": "Phase 2a trial: plasma and fecal concentrations (PK)", "type": "in vivo, human", "conditions": "CDI patients", "description": "Plasma levels were drawn at 2 and 4 hours after the first daily ibezapolstat administration on days 1, 5, and 10. Fecal samples were collected at baseline and daily during days 1-10 of ibezapolstat receipt. Plasma and fecal concentrations were assayed by AltaSciences (Laval, Quebec, Canada) and PK analyses were performed by Learn and Confirm Inc. (Montreal, Quebec, Canada)."}, "C. difficile": {"system": "C. difficile", "test": "Phase 2a trial: stool culture for C. difficile on CCFA", "type": "in vivo, Clostridioides difficile", "conditions": "CDI patients", "description": "Stool samples were cultured for C. difficile growth on a selective cycloserine-cefoxitin fructose agar (CCFA) at 37° C. under anaerobic conditions for 48 hours. (Gonzales-Luna). Isolates were determined to be C. difficile based on growth and morphology and confirmed by PCR for C. difficile toxin and tpi genes. C. difficile was strain typed using a PCR-based ribotyping method as previously described. (Gonzales-Luna A J, Carlson T J, Dotson K M, et al. PCR ribotypes of Clostridioides difficile across Texas from 2011 to 2018 including emergence of ribotype 255. Emerg Microbes Infect 2020; 9(1): 341-7.) Minimum inhibitory concentrations (MICs) were determined for ibezapolstat by broth microdilution in 0.1% sodium taurocholate Brain Heart Infusion (BHI) media. (Begum K, Basseres E, Miranda J, et al. In Vitro Activity of Omadacycline, a New Tetracycline Analog, and Comparators against Clostridioides difficile. Antimicrob Agents Chemother 2020; 64(8).)"}, "C. difficile infection [4]": {"system": "C. difficile infection", "conditions": "literature (Gonzales-Luna); cited from earlier work"}, "[5]": {"conditions": "ibezapolstat 450 mg orally twice daily 10 days"}, "[6]": {"conditions": "CDI patients receiving ibezapolstat"}},
  "data": [
    {"smiles": "O=c1[nH]c(NCc2ccc(Cl)c(Cl)c2)nc2ncn(CCN3CCOCC3)c12", "note": "[Ibezapolstat, 2-((3,4-dichlorobenzyl)amino)-7-(2-morpholinoethyl)-1,7-dihydro-6H-purin-6-one]", "values": [
      {"measurement": "no recurrences of infection", "setting": "C. difficile infection [1]; followed 28±2 days", "value": 100, "unit": "%"},
      {"measurement": "clinical cure at day 12", "setting": "C. difficile infection [1]; [5]", "value": 100, "unit": "%"},
      {"measurement": "infection eliminated", "setting": "C. difficile infection [1]; [5]", "value": 100, "unit": "%"},
      {"measurement": "sustained clinical cure at day 38", "setting": "C. difficile infection [1]; [5]", "value": 100, "unit": "%"},
      {"measurement": "number of AEs reported", "setting": "[2]; 10 CDI patients", "value": "Seven"},
      {"measurement": "serious AEs", "setting": "[2]; 10 CDI patients", "value": "None"},
      {"measurement": "adverse event profile, in words", "setting": "[2]; 10 CDI patients, ibezapolstat 450 mg twice daily 10 days", "value": "acceptable adverse event profile"},
      {"measurement": "Adverse event Headache: Action taken with study medication", "setting": "[2]; [6]", "value": "No"},
      {"measurement": "Adverse event Headache: Frequency", "setting": "[2]; [6]", "value": "Intermittent"},
      {"measurement": "Adverse event Headache: Intensity", "setting": "[2]; [6]", "value": "Mild"},
      {"measurement": "Adverse event Headache: Outcome", "setting": "[2]; [6]", "value": "Resolved"},
      {"measurement": "Adverse event Headache: Relationship to study drug", "setting": "[2]; [6]", "value": "Unrelated"},
      {"measurement": "Adverse event Headache: Serious AE", "setting": "[2]; [6]", "value": "No"},
      {"measurement": "Adverse event Headache: Treatment required", "setting": "[2]; [6]", "value": "No"},
      {"measurement": "Adverse event Intertriginous Candidiasis: Action taken with study medication", "setting": "[2]; [6]", "value": "No"},
      {"measurement": "Adverse event Intertriginous Candidiasis: Frequency", "setting": "[2]; [6]", "value": "Continuous"},
      {"measurement": "Adverse event Intertriginous Candidiasis: Intensity", "setting": "[2]; [6]", "value": "Moderate"},
      {"measurement": "Adverse event Intertriginous Candidiasis: Outcome", "setting": "[2]; [6]", "value": "Resolved"},
      {"measurement": "Adverse event Intertriginous Candidiasis: Relationship to study drug", "setting": "[2]; [6]", "value": "Unrelated"},
      {"measurement": "Adverse event Intertriginous Candidiasis: Serious AE", "setting": "[2]; [6]", "value": "No"},
      {"measurement": "Adverse event Intertriginous Candidiasis: Treatment required", "setting": "[2]; [6]", "value": "Yes"},
      {"measurement": "Adverse event Migraine headache: Action taken with study medication", "setting": "[2]; [6]", "value": "No"},
      {"measurement": "Adverse event Migraine headache: Frequency", "setting": "[2]; [6]", "value": "Continuous"},
      {"measurement": "Adverse event Migraine headache: Intensity", "setting": "[2]; [6]", "value": "Severe"},
      {"measurement": "Adverse event Migraine headache: Outcome", "setting": "[2]; [6]", "value": "Resolved"},
      {"measurement": "Adverse event Migraine headache: Relationship to study drug", "setting": "[2]; [6]", "value": "Unrelated"},
      {"measurement": "Adverse event Migraine headache: Serious AE", "setting": "[2]; [6]", "value": "No"},
      {"measurement": "Adverse event Migraine headache: Treatment required", "setting": "[2]; [6]", "value": "Yes"},
      {"measurement": "Adverse event Nausea: Action taken with study medication", "setting": "[2]; [6]", "value": "No"},
      {"measurement": "Adverse event Nausea: Frequency", "setting": "[2]; [6]", "value": "Intermittent"},
      {"measurement": "Adverse event Nausea: Intensity", "setting": "[2]; [6]", "value": "Moderate"},
      {"measurement": "Adverse event Nausea: Outcome", "setting": "[2]; [6]", "value": "Resolved"},
      {"measurement": "Adverse event Nausea: Relationship to study drug", "setting": "[2]; [6]", "value": "Probably"},
      {"measurement": "Adverse event Nausea: Serious AE", "setting": "[2]; [6]", "value": "No"},
      {"measurement": "Adverse event Nausea: Treatment required", "setting": "[2]; [6]", "value": "No"},
      {"measurement": "Adverse event Vomiting: Action taken with study medication", "setting": "[2]; [6]", "value": "No"},
      {"measurement": "Adverse event Vomiting: Frequency", "setting": "[2]; [6]", "value": "Once"},
      {"measurement": "Adverse event Vomiting: Intensity", "setting": "[2]; [6]", "value": "Moderate"},
      {"measurement": "Adverse event Vomiting: Outcome", "setting": "[2]; [6]", "value": "Resolved"},
      {"measurement": "Adverse event Vomiting: Relationship to study drug", "setting": "[2]; [6]", "value": "Probably"},
      {"measurement": "Adverse event Vomiting: Serious AE", "setting": "[2]; [6]", "value": "No"},
      {"measurement": "Adverse event Vomiting: Treatment required", "setting": "[2]; [6]", "value": "Yes"},
      {"measurement": "patients with AEs", "setting": "[2]; of the 10 patients", "value": 4},
      {"measurement": "stool samples with detectable concentration on day 38", "setting": "[3]", "value": "Three of 4"},
      {"measurement": "plasma concentrations, upper limit", "setting": "[3]; 450 mg twice daily", "value": "≤ 1000", "unit": "ng/mL"},
      {"measurement": "stool concentration, days 8-10 of therapy", "setting": "[3]; 450 mg twice daily", "value": "> 1,000 μg/g stool"},
      {"measurement": "concentration at 2 h", "setting": "[3]; human, plasma, oral, 450 mg twice daily, read-out: plasma levels 2-hour post-dose", "value": "234 to 299", "unit": "ng/mL"},
      {"measurement": "concentration at 4 h", "setting": "[3]; human, plasma, oral, 450 mg twice daily, read-out: plasma levels 4-hour postdose", "value": "373 to 578", "unit": "ng/mL"},
      {"measurement": "concentration at 2 days after EOT", "setting": "[3]; human, stool, oral, 450 mg, read-out: stool concentration two days after EOT", "value": "535000 ± 748000", "unit": "ng/g"},
      {"measurement": "concentration at 38 day", "setting": "[3]; human, stool, oral, 450 mg, samples with detectable concentration", "value": "136000 ± 161000", "unit": "ng/g"},
      {"measurement": "concentration at 3 day of therapy", "setting": "[3]; human, stool, oral, 450 mg twice daily", "value": "416000 ± 494000", "unit": "ng/g"},
      {"measurement": "C. difficile growth from stool samples after baseline", "setting": "C. difficile; all sampling days other than baseline, 7-9 samples/day", "value": "did not grow C. difficile"},
      {"measurement": "Eradication of colonic C. difficile", "setting": "C. difficile; ibezapolstat 450 mg twice daily", "value": "complete eradication of colonic C. difficile by day three"}
    ]},
    {"smiles": "CN[C@H](CC(C)C)C(=O)N[C@H]1C(=O)N[C@@H](CC(N)=O)C(=O)N[C@H]2C(=O)N[C@H]3C(=O)N[C@H](C(=O)N[C@H](C(=O)O)c4cc(O)cc(O)c4-c4cc3ccc4O)[C@H](O)c3ccc(c(Cl)c3)Oc3cc2cc(c3O[C@@H]2O[C@H](CO)[C@@H](O)[C@H](O)[C@H]2O[C@H]2C[C@](C)(N)[C@H](O)[C@H](C)O2)Oc2ccc(cc2Cl)[C@H]1O", "note": "[Vancomycin, vancomycin]", "values": [
      {"measurement": "patients having a recurring CDI after treatment is discontinued", "setting": "C. difficile infection [4]", "value": "20-25%"}
    ]},
    {"smiles": "CCc1c(Cl)c(O)c(Cl)c(O)c1C(=O)O[C@H]1[C@H](O)[C@H](OC)[C@H](OC/C2=C\\C=C\\C[C@H](O)/C(C)=C/[C@H](CC)[C@@H](O[C@@H]3OC(C)(C)[C@@H](OC(=O)C(C)C)[C@H](O)[C@@H]3O)/C(C)=C/C(C)=C/C[C@@H]([C@@H](C)O)OC2=O)O[C@@H]1C", "note": "[fidaxomicin]", "values": [
      {"measurement": "CDI recurrence rates lower than other treatments", "setting": "C. difficile infection [4]", "value": "approximately 50%"}
    ]}
  ]
}
